Experimental data as given in patent US6589759B1, “Compositions and methods for producing platelets and/or proplatelets from megakaryocytes” (Trustees of Boston University, priority 1999, dated 2003).

How the values were obtained:
Meg-01 cells [1] = test: Production of cGMP from megakaryocytes treated with SNO-glu (ELISA); type: cell-based, human; details: for cGMP: n = 2
Description: The Meg-01 cells were grown as described in Example 1. The Med-01 cells, in the presence and absence of TPO, were treated with 100 μM SNO-glu for varying lengths of time. The cells were collected by centrifugation (1000 rpm for 10 minutes), and then lysed with 6% trichloroacteic acid (TCA). The cGMP was extracted with distilled water-saturated ether. The cGMP was quantified using the standard ELISA assay (Caymen Chemical Inc., Ann Arbor, Mich.).

Meg-01 cells [2] = test: Platelet-sized particle production from Meg-01 cells by flow cytometry (GPIIIa positive); type: cell-based, human; details: for production of GPIIIa positive platelet-sized particles: Meg-01 cells pretreated with 100 ng/ml thrombopoietin for 72 hours, then 100 μM SNO-glu for 2 hours
Description: The production of platelet-sized particles in the Meg-01 cell line using flow cytometry was determined. Human megakaryoblastic leukemia cell line Meg-01 was obtained from American Type Culture Collection (Manassas, Va.) and grown in phenol red-free RPMI-1640 media (Gibco-BRL, Grand Island, N.Y.) supplemented with 10% fetal bovine serum at 37° C. in a humidified atmosphere of 5% CO2. The experiment to monitor platelet production by the megakaryocytoid cell line, Meg-01, were performed as follows: 10 ml of Meg-01 cells (1×10^5/ml) were treated with 100 ng/ml of thrombopoietin (TPO, Amgen, Thousand Oaks, Calif.) for 72 hours. The cells were then centrifuged at 1000 rpm for 10 minutes, washed with phosphate buffered saline (PBS) and resuspended in RPMI-1640 media. Meg-01 cells, in the presence and absence of TPO, were treated with 100 μM SNO-glu for 2 hours. The cells were collected by centrifugation (1000 rpm for 10 minutes), washed once in PBS, resuspended in 500 μl of 3% formaldehyde, and allowed to fix for 20 minutes at room temperature. After fixation, 100 μl of cells were labeled with fluorescein isothiocyanate-conjugated (FITC)-conjugated monoclonal mouse anti-human platelet glycoprotein IIIa, CD61 (GPIIIa, DAKO Corp. Carpinteria, Calif.) at a near saturating concentration and incubated at room temperature for 20 minutes. The sample was diluted in 100 μl of PBS and analyzed on a Coulter EPICS XL flow cytometer (Coulter, Miami, Fla.). DNA check flow cytometry beads purchased from Coulter were used for daily instrument calibration. Appropriate color compensation was set for FITC fluorescence and phycoerythrin fluorescence using 525 nm and 575 nm band pass filters, respectively. All data were saved in flow cytometry list mode files and analyzed using Coulter ELITE software, version 2.21. Platelet-sized particles were identified by characteristic log forward light scatter (LFS). Only those particles that bound the anti-GPIIIa-FITC antibody ([…] FITC-conjugated antibody) (Dako, Denmark) were analyzed (by gating the fluorescence signal).

Molecule	effect of added TPO on cGMP production during SNO-glu treatment (Meg-01 cells [1]; Meg-01 cells, TPO added during 100 μM SNO-glu treatment)	cGMP (Meg-01 cells [1]; 100 μM SNO-Glu in the presence of TPO, 30 minutes)	cGMP (Meg-01 cells [1]; 100 μM, 5 minutes)	cGMP (Meg-01 cells [1]; 100 μM, 10 minutes)	cGMP (Meg-01 cells [1]; 100 μM, 20 minutes)	cGMP (Meg-01 cells [1]; 100 μM, 30 minutes)	production of cGMP (in words) (Meg-01 cells [1]; Meg-01 cells, 100 μM SNO-glu)	production of GPIIIa positive platelet-sized particles (Meg-01 cells [2]; listed as S-nitroso-glutathione)	production of GPIIIa positive platelet-sized particles (Meg-01 cells [2]; listed as SNO-glu)	formation of GPIIIa positive platelet-sized particles (Meg-01 cells [2]; Meg-01 cells, 100 μM SNO-glu for 2 hours, no TPO)
TPO: thrombopoiesis stimulating factor thrombopoietin (TPO, Amgen)	completely suppressed the production of cGMP									
N[C@@H](CCC(=O)N[C@@H](CSN=O)C(=O)NCC(=O)O)C(=O)O [SNO-Glu, S-nitroso-glutathione]		0.960 pmol cGMP/mg Protein	263.1 pmol cGMP/mg Protein	461.2 pmol cGMP/mg Protein	472.9 pmol cGMP/mg Protein	611.3 pmol cGMP/mg Protein	increased production of cGMP	promoted platelet-like particle formation	enhanced production of GPIIIa positive platelet-sized particles	formation of GPIIIa positive platelet-sized particle population
